Results published in US20200392158A1, “INHIBITORS OF LEUCINE RICH REPEAT KINASE 2” (GLAXOSMITHKLINE INTELLECTUAL PROPERTY DEVELOPMENT LIMITED, priority 2017, published 2020).

Each compound was assayed against T1, LRRK2 kinase in SH-SY5Y cells over-expressing recombinant full length LRRK2 (Homo sapiens, UniProt Q5S007) (assay: Recombinant cellular LRRK2 AlphaScreen assay (LRRK2 Ser935 phosphorylation)). Settings: 60 min.
T1 construct: A BacMam virus expressing full length recombinant LRRK2 was purchased from Invitrogen; host or cells: SH-SY5Y human neuroblastoma cells transduced with BacMam LRRK2 virus
T1 sequence (Q5S007 whole entry): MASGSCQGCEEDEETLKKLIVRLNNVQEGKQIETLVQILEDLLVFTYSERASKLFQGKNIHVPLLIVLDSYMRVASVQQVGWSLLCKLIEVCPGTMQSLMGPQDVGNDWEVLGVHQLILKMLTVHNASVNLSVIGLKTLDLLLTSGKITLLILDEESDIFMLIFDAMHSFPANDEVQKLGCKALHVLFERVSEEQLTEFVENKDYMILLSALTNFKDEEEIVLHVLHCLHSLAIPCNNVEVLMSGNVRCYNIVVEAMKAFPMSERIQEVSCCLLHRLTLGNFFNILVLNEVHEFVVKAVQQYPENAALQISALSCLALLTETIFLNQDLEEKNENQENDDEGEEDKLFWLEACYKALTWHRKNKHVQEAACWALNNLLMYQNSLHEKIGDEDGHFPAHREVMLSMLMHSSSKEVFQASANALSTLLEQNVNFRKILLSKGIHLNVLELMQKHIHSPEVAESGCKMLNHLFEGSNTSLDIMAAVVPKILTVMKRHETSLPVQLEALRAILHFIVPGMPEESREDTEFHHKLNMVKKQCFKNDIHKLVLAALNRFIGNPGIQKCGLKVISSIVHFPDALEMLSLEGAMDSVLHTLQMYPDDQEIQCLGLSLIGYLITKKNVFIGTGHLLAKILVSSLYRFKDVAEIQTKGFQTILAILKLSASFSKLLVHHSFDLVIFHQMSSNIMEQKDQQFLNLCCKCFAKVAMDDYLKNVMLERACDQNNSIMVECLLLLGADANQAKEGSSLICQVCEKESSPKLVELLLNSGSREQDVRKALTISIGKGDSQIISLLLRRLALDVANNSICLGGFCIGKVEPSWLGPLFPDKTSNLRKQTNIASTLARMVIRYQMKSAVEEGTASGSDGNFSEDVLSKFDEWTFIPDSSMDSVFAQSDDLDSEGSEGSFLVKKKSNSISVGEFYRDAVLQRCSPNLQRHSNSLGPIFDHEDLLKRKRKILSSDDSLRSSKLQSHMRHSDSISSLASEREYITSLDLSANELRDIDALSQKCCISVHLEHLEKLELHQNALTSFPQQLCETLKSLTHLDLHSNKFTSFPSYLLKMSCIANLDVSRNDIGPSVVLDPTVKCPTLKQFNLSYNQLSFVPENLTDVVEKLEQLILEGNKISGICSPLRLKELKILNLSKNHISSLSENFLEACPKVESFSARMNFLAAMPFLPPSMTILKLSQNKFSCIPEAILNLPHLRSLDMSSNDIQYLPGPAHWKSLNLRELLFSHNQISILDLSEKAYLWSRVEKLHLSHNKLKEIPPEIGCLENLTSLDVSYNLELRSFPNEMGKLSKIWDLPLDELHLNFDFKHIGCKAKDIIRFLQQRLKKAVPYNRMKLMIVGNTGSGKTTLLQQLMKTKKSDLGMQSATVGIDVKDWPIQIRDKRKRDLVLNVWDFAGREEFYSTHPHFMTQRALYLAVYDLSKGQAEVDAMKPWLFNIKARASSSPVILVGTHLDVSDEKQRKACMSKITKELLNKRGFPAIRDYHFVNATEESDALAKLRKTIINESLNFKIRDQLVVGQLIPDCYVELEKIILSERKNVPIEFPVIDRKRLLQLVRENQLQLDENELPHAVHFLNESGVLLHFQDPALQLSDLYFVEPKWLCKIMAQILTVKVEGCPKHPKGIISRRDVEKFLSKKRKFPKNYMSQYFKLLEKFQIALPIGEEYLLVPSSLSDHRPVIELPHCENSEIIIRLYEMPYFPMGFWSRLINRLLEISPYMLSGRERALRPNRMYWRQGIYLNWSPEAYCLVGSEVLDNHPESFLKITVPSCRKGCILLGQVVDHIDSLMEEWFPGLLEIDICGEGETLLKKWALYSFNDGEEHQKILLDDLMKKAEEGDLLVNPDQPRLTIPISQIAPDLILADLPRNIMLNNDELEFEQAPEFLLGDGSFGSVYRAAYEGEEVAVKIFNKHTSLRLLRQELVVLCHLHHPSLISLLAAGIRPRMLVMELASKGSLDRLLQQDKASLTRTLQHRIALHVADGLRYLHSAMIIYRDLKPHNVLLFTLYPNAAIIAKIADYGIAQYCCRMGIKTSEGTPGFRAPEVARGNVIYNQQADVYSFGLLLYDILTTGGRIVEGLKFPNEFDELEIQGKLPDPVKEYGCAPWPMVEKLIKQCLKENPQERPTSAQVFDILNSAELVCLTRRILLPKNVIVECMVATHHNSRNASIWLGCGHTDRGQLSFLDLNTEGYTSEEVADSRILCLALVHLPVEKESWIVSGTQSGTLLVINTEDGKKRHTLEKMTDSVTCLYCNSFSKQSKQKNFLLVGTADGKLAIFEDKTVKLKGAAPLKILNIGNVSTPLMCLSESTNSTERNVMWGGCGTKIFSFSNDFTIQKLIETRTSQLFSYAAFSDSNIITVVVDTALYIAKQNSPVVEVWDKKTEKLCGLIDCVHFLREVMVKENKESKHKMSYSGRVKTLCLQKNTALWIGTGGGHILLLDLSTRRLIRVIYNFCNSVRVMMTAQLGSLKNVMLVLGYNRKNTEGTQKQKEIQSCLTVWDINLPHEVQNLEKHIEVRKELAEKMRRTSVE
Format: cell-based
Description: b. Recombinant Cellular LRRK2 AlphaScreen Assay
To determine the activity of compounds against LRRK2 kinase in cells, the observed LRRK2 kinase-dependent modulation of LRRK2 Ser 935 phosphorylation (Dzamko et al., 2010, Biochem. J. 430: 405-413) was utilized to develop a quantitative 384 well plate-based immunoassay of LRRK2 Ser935 phosphorylation in the human neuroblastoma cell line SH-SY5Y, engineered to over-express recombinant full length LRRK2 protein.
A BacMam virus expressing full length recombinant LRRK2 was purchased from Invitrogen and amplified by inoculation of SF-9 cells at MOI 0.3 for 4-5 days in Sf-900 III SFM medium supplemented with 3% fetal bovine serum. Infected cell cultures were then centrifuged at 2000 g for 20 minutes, viral supernatant titer determined by anti-gp64 plaque assay and stored at 4° C.
Affinity-purified anti-phospho LRRK2 Ser935 sheep polyclonal antibody (Dzamko et al., 2010, Biochem. J. 430: 405-413) was biotinylated by standard methods (PerkinElmer). Anti-LRRK2 rabbit polyclonal antibody was purchased from Novus Biologicals. AlphaScreen Protein A IgG Kit (including acceptor and donor beads) was purchased from Perkin Elmer.
SH-SY5Y cells were grown in DMEM/F12 medium with 10% dialysed fetal bovine serum and harvested by treatment with 0.5% trypsin-EDTA for 5 minutes at 37° C. followed by centrifugation at 1000 rpm for 4 minutes. The cell pellet was resuspended in Opti-MEM reduced serum media (Invitrogen) at 200,000 cells/ml and mixed with the BacMam LRRK2 virus at M01=50. 50 μl cell solutions were then dispensed to each well of a 384-well plate and incubated at 37° C., 5% CO2 for 24 hours.
Compounds were prepared at 10× final assay concentration as 11 point 1 in 4 serial I dilutions in Opti-MEM reduced serum medium (Invitrogen 31985070) containing 1% DMSO. On the day of assay, 5.5 μl of the compound solutions were transferred from the compound plate to the cell assay plate to achieve a top final assay concentration of 10 uM. DMSO (0.1% final assay concentration) was added to column 6 and 2-(benzyloxy)-5-methyl-4-(1-methyl-1H-pyrazol-4-yl)-N-(pyridin-3-yl)benzamide (2 μM final assay concentration) was added to column 18 to serve as 0% and 100% inhibition controls, respectively.
Cells were incubated at 37° C., 5% CO2 for 60 minutes. The medium was then removed and cells lysed by addition of 20 μl of cell lysis buffer (Cell Signaling Technology) and incubation at 4° C. for 20 minutes. 10 μl of antibody/acceptor bead mix [(1/1000 biotinylated-pS935 LRRK2 antibody, 1/1000 total-LRRK2 antibody, 1/100 Acceptor beads in AlphaScreen detection buffer (25 mM Hepes (pH 7.4), 0.5% Triton X-100, 1 mg/ml Dextran 500 and 0.1% BSA)] was then added to each well and plates incubated for 2 hours at ambient temperature in the dark. 10 μl of donor beads solution (1/33.3 donor beads in AlphaScreen detection buffer) was then added to each well. Following incubation for a further 2 hours at ambient temperature in the dark, plates were read on an EnVision™ plate reader at emission 520-620 nm with excitation 680 nm. Dose response curve data was based on a sigmoidal dose-response model.

IC50, ≤ 100 nM:
Cc1c2c(nn1C(C)(C)CO)OCC[C@@H](C)Nc1nc(ncc1Cl)N2 [E452, 2-[(11R)-14-Chloro-4,11-dimethyl-8-oxa-2,5,6,12,16,17-hexaazatricyclo[11.3.1.0^3,7]heptadeca-1(16),3,6,13(17),14-pentaen-5-yl]-2-methylpropan-1-ol]
Cc1c2c(nn1C1CCOCC1(F)F)OCC[C@@H](C)Nc1nc(ncc1Cl)N2 (single isomer, unassigned) [E392]
Cc1c2c(nn1C1CC(C)OC(C)C1)OCCC(C)Nc1nc(ncc1Cl)N2 (single isomer, unassigned) [E194, 14-Chloro-5-(2,6-dimethyloxan-4-yl)-4,11-dimethyl-8-oxa-2,5,6,12,16,17-hexaazatricyclo[11.3.1.0^3,7] heptadeca-1(16),3,6,13(17),14-pentaene]
Cc1c2c(nn1C1CCCOC1)OCCCNc1nc(ncc1Br)N2 (single isomer, unassigned) [E288, 14-Bromo-4-methyl-5-(oxan-3-yl)-8-oxa-2,5,6, 12,16,17-hexaazatricyclo[11.3.1.0^3,7]heptadeca-1(16),3,6,13(17), 14-pentaene]
Cc1c2c(nn1C1CCOCC1)OCC(OC(F)F)CNc1nc(ncc1Cl)N2 (single isomer, unassigned) [E284, 14-Chloro-10-(difluoromethoxy)-4-methyl-5-(oxan-4-yl)-8-oxa-2,5,6,12,16,17-hexaazatricyclo[11.3.1.0^3,7] heptadeca-1(16),3,6,13(17),14-pentaene]
Cc1c2c(nn1C(C)(C)CO)OCCCNc1nc(ncc1Cl)N2 [E451, 2-{14-Chloro-4-methyl-8-oxa-2,5,6,12,16,17-hexaazatricyclo[11. 3.1.0^3,7]heptadecal 1(16),3,6,13(17),14-pentaen-5-yl}-2-methylpropan-1-ol]
Cc1c2c(nn1C1CCC(N3CCC(F)C3)CC1)OCCC(C)Nc1nc(ncc1Cl)N2 (single isomer, unassigned) [E158, 14-Chloro-5-[4-(3-fluoropyrrolidin-1-yl)cyclohexyl]-4,11-dimethyl-8-oxa-2,5,6,12,16,17-hexaazatricyclo [11.3.1.0^3,7]heptadeca-1(16),3,6,13(17),14-pentaene]
Cc1c2c(nn1C1CN(C3COC3)CCO1)OCC[C@@H](C)Nc1nc(ncc1Cl)N2 (stereo partly drawn) [E402, (11R)-14-Chloro-4,11-dimethyl-5-[4-(oxetan-3-yl)morpholin-2-yl]-8-oxa-2,5,6,12,16,17-hexaazatricyclo[11.3.1.0^3,7]heptadeca-1(16),3,6,13(17),14-pentaene]
Cc1c2c(nn1C1CCCOC1)OCCCNc1nc(ncc1Cl)N2 (stereo not drawn) [E8, 14-Chloro-4-methyl-5-(oxan-3-yl)-8-oxa-2,5,6,12,16,17-hexaazatricyclo[11.3.1.0^3,7]heptadeca-1(16),3,6,13(17),14-pentaene]
Cc1c2c(nn1C1CC(N3CCC(F)(F)C3)C1)OCCC(C)Nc1nc(ncc1Cl)N2 (single isomer, unassigned) [E314, 14-Chloro-5-[3-(3,3-difluoropyrrolidin-1-yl)cyclobutyl]-4,11-dimethyl-8-oxa-2,5,6,12,16,17-hexaazatricyclo [11.3.1.0^3,7]-heptadeca-1(16),3,6,13(17),14-pentaene]
Cc1c2c(nn1CCN1CCOCC1)OCCCNc1nc(ncc1Cl)N2 [E220, 14-Chloro-4-methyl-5-[2-(morpholin-4-yl)ethyl]-8-oxa-2,5,6,12, 16,17-hexaazatricyclo[11.3.1.0^3,7]heptadeca-1(16),3,6,13(17),14-pentaene]
Cc1c2c(nn1C1CCOCC1)OCCCNc1cc(ncc1C(F)(F)F)N2 [E125, 4-Methyl-5-(oxan-4-yl)-14-(trifluoromethyl)-8-oxa-2,5,6,12,16-pentaazatricyclo[11.3.1.0^3,7]heptadeca-1(16),3,6,13(17),14-pentaene]
COC1CNc2nc(ncc2Cl)Nc2c(nn(C3CCCOC3)c2C)OC1 (single isomer, unassigned) [E229, 14-Chloro-10-methoxy-4-methyl-5-(oxan-3-yl)-8-oxa-2,5,6,12,16,17-hexaazatricyclo[11.3.1.0^3,7]heptadeca-1(17),3,6,13,15-pentaene]
COC1CCC(n2nc3c(c2C)Nc2ncc(Cl)c(n2)NCCCO3)CC1 (single isomer, unassigned) [E237, 14-Chloro-5-(4-methoxycyclohexyl)-4-methyl-8-oxa-2,5,6,12,16,17-hexaazatricyclo[11.3.1.0^3,7]heptadeca-1(16), 3,6,13(17),14-pentaene]
Cc1c2c(nn1C(C)(C)C(N)=O)OCCC(C)Nc1nc(ncc1Cl)N2 (single isomer, unassigned) [E42, 2-{14-chloro-4,11-dimethyl-8-oxa-2,5,6,12,16,17-hexaazatricyclo [11.3.1.0^3,7]heptadeca-1(16),3,6,13(17),14-pentaen-5-yl}-2-methylpropanamide]
Cc1c2c(nn1CC1(C)COC1)OCCCNc1nc(ncc1Cl)N2 [E143, 14-Chloro-4-methyl-5-[(3-methyloxetan-3-yl)methyl]-8-oxa-2,5,6,12,16,17-hexaazatricyclo[11.3.1.0^3,7]heptadeca-1(16),3,6, 13(17), 14-pentaene]
COC1CCCC(n2nc3c(c2C)Nc2ncc(Cl)c(n2)NCCCO3)C1 (single isomer, unassigned) [E178, 14-Chloro-5-(3-methoxycyclohexyl)-4-methyl-8-oxa-2,5,6,12,16,17-hexaazatricyclo[11.3.1.0^3,7]heptadeca-1(16),3,6,13(17),14-pentaene]
Cc1c2c(nn1C1CC(N3C[C@H]4C[C@@H]3CO4)C1)OCCCNc1nc(ncc1Cl)N2 (stereo partly drawn) [E310, 14-Chloro-4-methyl-5-{3-[(1R,4R)-2-oxa-5-azabicyclo[2.2.1]heptan-5-yl]-cyclobutyl}-8-oxa-2,5,6,12,16,17-hexaazatricyclo [11.3.1.0^3,7]heptadeca-1(16),3,6,13(17),14-pentaene]
Cc1c2c(nn1C1CC(C)OC(C)C1)OCCCNc1nc(ncc1Cl)N2 (single isomer, unassigned) [E200, 14-Chloro-5-(2,6-dimethyloxan-4-yl)-4-methyl-8-oxa-2,5,6,12,16,17-hexaazatricyclo[11.3.1.0^3,7]heptadeca-1(16),3,6,13(17),14-pentaene]
Cc1c2c(nn1C1CCOC(C)C1)OCCCNc1nc(ncc1Cl)N2 (single isomer, unassigned) [E202, 14-Chloro-4-methyl-5-(2-methyloxan-4-yl)-8-oxa-2,5,6,12,16,17-hexaazatricyclo[11.3.1.0^3,7]heptadeca-1(16),3,6,13(17),14-pentaene]
Cc1c2c(nn1C1CCOCC1)OCCCNc1nc(ncc1C(F)(F)F)N2 [E111, 4-Methyl-5-(oxan-4-yl)-14-(trifluoromethyl)-8-oxa-2,5,6,12,16, 17-hexaazatricyclo[11.3.1.0^3,7]heptadeca-1(16),3,6,13(17),14-pentaene]
COC1CNc2nc(ncc2C(F)(F)F)Nc2c(nn(C3CCOCC3)c2C)OC1 (stereo not drawn) [E119, 10-Methoxy-4-methyl-5-(oxan-4-yl)-14-(trifluoromethyl)-8-oxa-2,5,6,12,16,17-hexaazatricyclo[11.3.1.0^3,7]heptadeca-1(16),3,6, 13(17),14-pentaene]
Cc1c2c(nn1C)OCCCNc1nc(ncc1Cl)N2 [E108, 14-Chloro-4,5-dimethyl-8-oxa-2,5,6,12,16,17-hexaazatricyclo [11.3.1.0^3,7]heptadeca-1(16),3,6,13(17),14-pentaene]
Cc1c2c(nn1C(C)(C)C#N)OCC(C)C(C)Nc1nc(ncc1Cl)N2 (single isomer, unassigned) [E165, 2-{14-Chloro-4,10,11-trimethyl-8-oxa-2,5,6, 12,16,17-hexaazatricyclo[11.3.1.0^3,7]heptadeca-1(16),3,6, 13(17),14-pentaen-5-yl}-2-methylpropanenitrile]
